This is an account of results in patent US20120095055A1, “HEXAHYDROCYCLOPENTYL[f]INDAZOLE 5-HYDROXYMETHYL ETHANOLS AND DERIVATIVES THEREOF AS SELECTIVE GLUCOCORTICOID RECEPTOR MODULATORS” (Merck Sharp & Dohme, Corp., priority 2009, published 2012).

For this experiment, the target named is T1, human GR (Homo sapiens, UniProt P04150).
T1 construct: naturally expresses the human GR; endogenous in cells
T1 sequence (P04150 1-777): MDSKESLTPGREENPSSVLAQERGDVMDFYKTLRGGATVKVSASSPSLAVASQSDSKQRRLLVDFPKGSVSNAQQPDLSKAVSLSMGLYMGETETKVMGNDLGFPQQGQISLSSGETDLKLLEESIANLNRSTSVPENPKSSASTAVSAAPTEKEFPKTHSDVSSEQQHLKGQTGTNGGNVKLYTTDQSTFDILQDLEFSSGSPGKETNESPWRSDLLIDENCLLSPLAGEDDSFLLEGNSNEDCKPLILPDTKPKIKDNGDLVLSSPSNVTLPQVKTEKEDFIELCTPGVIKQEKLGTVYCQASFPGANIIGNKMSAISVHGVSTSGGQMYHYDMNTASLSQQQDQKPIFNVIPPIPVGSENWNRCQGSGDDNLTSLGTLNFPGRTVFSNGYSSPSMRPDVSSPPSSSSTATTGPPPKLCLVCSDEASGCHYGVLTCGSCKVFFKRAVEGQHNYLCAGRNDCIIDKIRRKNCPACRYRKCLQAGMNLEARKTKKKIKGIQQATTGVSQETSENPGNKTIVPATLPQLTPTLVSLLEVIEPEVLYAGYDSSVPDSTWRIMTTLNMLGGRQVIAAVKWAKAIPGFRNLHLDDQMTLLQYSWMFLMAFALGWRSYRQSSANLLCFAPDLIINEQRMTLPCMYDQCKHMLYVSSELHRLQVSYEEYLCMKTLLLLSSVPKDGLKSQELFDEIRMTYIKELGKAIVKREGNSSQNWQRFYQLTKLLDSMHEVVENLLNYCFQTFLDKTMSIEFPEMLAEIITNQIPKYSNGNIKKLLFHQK
Put plainly: Transrepression Assay (GITAR), TNFα-β-lactamase reporter in U937 cells. To be noted: for Emax: U-937, activity repressed by 100 nM dexamethasone set as 100%; for EC50: inflection point (IP), TNFα promoter β-lactamase reporter, PMA/LPS; for Transrepression U937 Cells GITAR Emax (%): activity repressed by 100 nM dexamethasone set as 100%. Format: cell-based. An excerpt:
This assay assesses the ability of test compounds to control transcription from the TNFα-β-lactamase reporter gene in U937 cells, a human myelomonocytic leukemia cell line that naturally expresses the human GR. The assay measures compound dependent-repression of the TNFa promoter linked to a reporter gene.
The human U937 cells that had been stablely transfected with the TNF-α promoter driving β-lactamase are used for this assay. U937 cells contain an endogenous glucocorticoid receptor (GR). Cells are maintained in RPMI 1640 Growth medium (Gibco Cat#11875-093) containing 25 mM HEPES, 10% FBS, 2 mM L-Glutamine, 1 mM Sodium pyruvate, 25 μg/ml Gentamicin (Gibco Cat#15710-064), 1:1000 2-Mercaptoethanol (Gibco Cat#21985-023) and 0.8 mg/ml G418 (Gibco Cat#10131-027). The density of the cells in the flask needs to be about 1×106-3×10^6/ml at the time of harvest. Usually, the cells are split to 1.2˜1.4×10^5/ml (1:10) 3 days prior to the assay. 50,000 cells/well are plated in 96 well black-walled plates the day of assay. Test compounds are added 10 μL/well, and cells are incubated at 37° C. for 30˜45 min. For assaying compounds, first dilute 1:10 in DMSO to make 1 mM, then further dilute 1:100 in medium to make 10× stock prior to adding to the cells. Add 50 ng/ml PMA (Sigma, cat# P8139) 10 μL/well to a final concentration 5 ng/ml, and 1 μg/ml LPS (Sigma, cat# L4130) 10 μL/well to a final concentration 100 ng/ml. Incubate cells at 37° C. overnight for ˜18 hr. PMA is stored frozen as 100 μg/ml stock in DMSO. Dilute 1:10 in DMSO for a working stock of 10 μg/ml and store at −20 C. For assaying, dilute the 10 μg/ml working stock 1:200 in medium to make a 10× solution (50 ng/ml). Store frozen LPS at 1 mg/ml in PBS, dilute 1:1000 in medium to make 10× (1 μg/ml) for the assay. Add 6× loading buffer (CCF2-AM) 20 μL/well, and incubate at room temperature for 70˜90 min. […] The activity repressed by 100 nM dexamethasone alone is set as 100% activity.

Consider `Cc1ccc(C(O)C[C@]2(CO)CCC3=Cc4c(cnn4-c4ccc(F)cc4)C[C@@]32C)cc1` (single isomer, unassigned) [Example 2b], for which the maximal effect (Emax) (in general, the greatest response seen or fitted, relative to the assay's reference) was 94.4% and the midpoint of the response, the EC50, lay at 235 nM.

Turning to `C[C@]12Cc3cnn(-c4ccc(F)cc4)c3C=C1CC[C@@]2(CO)CC(O)c1ccc(F)cn1` (single isomer, unassigned) [Example 22b], the “Transrepression U937 Cells GITAR Emax (%)” value is recorded as 90.6% and it took 14.1 nM to reach a half-maximal effect (EC50).

In the case of `C[C@]12Cc3cnn(-c4ccc(F)cc4)c3C=C1CC[C@@]2(CO)CC(O)c1ccc(F)cn1` (single isomer, unassigned) [Example 22a], the Emax was found to be 90.9% and the concentration for a half-maximal effect (EC50) (in general, the midpoint of the concentration-response curve) was found to be 18.7 nM.

For the compound `C[C@]12Cc3cnn(-c4ccc(F)cc4)c3C=C1CC[C@@]2(CO)CC(O)c1cccnc1` (single isomer, unassigned) [Example 15a], the maximum response (Emax) amounted to 87.7% and a half-maximal effect (EC50) was put at 56.3 nM.

`C[C@]12Cc3cnn(-c4ccc(F)cc4)c3C=C1CC[C@@]2(CO)CC(O)c1ncccc1F` (single isomer, unassigned) [Example 10a]: the maximal effect (Emax) turned out to be 89.2% and the EC50 worked out at 16.5 nM.

Turning to `COc1ccc(C(O)C[C@]2(CO)CCC3=Cc4c(cnn4-c4ccc(F)cc4)C[C@@]32C)nc1` (single isomer, unassigned) [Example 24b], the “Transrepression U937 Cells GITAR Emax (%)” value came out at 57.9% and the response was half-maximal at 376 nM (EC50).

For `C[C@]12Cc3cnn(-c4ccc(F)cc4)c3C=C1CC[C@@]2(CO)CC(O)C(F)(F)F` (single isomer, unassigned) [Example 28b], the “Transrepression U937 Cells GITAR Emax (%)” value is reported as 80.2% and the concentration for a half-maximal effect (EC50) is 90.9 nM.

Regarding `C[C@]12Cc3cnn(-c4ccccc4)c3C=C1CC[C@@]2(CO)CC(O)c1ccccn1` (single isomer, unassigned) [Example 23b], the “Transrepression U937 Cells GITAR Emax (%)” value is listed as 83.7% and the 50% effective concentration (EC50) was found to be 49.6 nM.

`Cc1cccc(C(O)C[C@]2(CO)CCC3=Cc4c(cnn4-c4ccc(F)cc4)C[C@@]32C)c1` (single isomer, unassigned) [Example 5a] gave an Emax of 84.7% and a concentration giving a half-maximal response (EC50) of 86.1 nM.

`C[C@]12Cc3cnn(-c4ccc(F)cc4)c3C=C1CC[C@@]2(CO)CC(O)c1cccc(C(F)(F)F)c1` (single isomer, unassigned) [Example 7a] showed an Emax of 95.3% and a 50% effective concentration (EC50) of 87.6 nM.

Consider `C[C@]12Cc3cnn(-c4ccc(F)cc4)c3C=C1CC[C@@]2(CO)CC(O)c1ncccc1F` (single isomer, unassigned) [Example 10b], for which the “Transrepression U937 Cells GITAR Emax (%)” value is on record as 93.9% and the EC50 was found to be 4 nM.

With `CC(C)C(O)C[C@]1(CO)CCC2=Cc3c(cnn3-c3ccc(F)cc3)C[C@@]21C` (single isomer, unassigned) [Example 14b], the “Transrepression U937 Cells GITAR Emax (%)” value came out at 82.3% and a half-maximal effect (EC50) was put at 249 nM.

For the compound `C[C@]12Cc3cnn(-c4ccc(F)cc4)c3C=C1CC[C@@]2(CO)CC(O)c1ccccc1` (single isomer, unassigned) [Example 13b], the “Transrepression U937 Cells GITAR Emax (%)” value is 96.4% and the half-maximal effective concentration (EC50) is 18 nM.

As to `C[C@]12Cc3cnn(-c4ccc(F)cc4)c3C=C1CC[C@@]2(CO)CC(O)C1CC1` (single isomer, unassigned) [Example 20b, 1-cyclopropyl-2-[(4αS)-1-(4-fluorophenyl)-5-(hydroxymethyl)-4α-methyl-1,4,4α,5,6,7-hexahydrocyclopenta[f]indazol-5-yl]ethanol], the “Transrepression U937 Cells GITAR Emax (%)” value is on record as 72.0% and the concentration for a half-maximal effect (EC50) worked out at 573 nM.

Compound `C[C@]12Cc3cnn(-c4ccc(F)cc4)c3C=C1CC[C@@]2(CO)CC(O)c1ccccc1F` (stereo partly drawn) [Example 4, 1-(2-fluorophenyl)-2-[(4αS,5R)-1-(4-fluorophenyl)-5-(hydroxymethyl)-4α-methyl-1,4,4α,5,6,7-hexahydrocyclopenta[f]indazol-5-yl]ethanol] came in with an Emax of 104% and an EC50 of 28.2 nM.

For the compound `COc1cccnc1C(O)C[C@]1(CO)CCC2=Cc3c(cnn3-c3ccc(F)cc3)C[C@@]21C` (single isomer, unassigned) [Example 21a], the Emax was 85.4% and the EC50 was determined as 101 nM.

Take `C[C@]12Cc3cnn(-c4ccccc4)c3C=C1CC[C@@]2(CO)CC(O)c1cccnc1` (single isomer, unassigned) [Example 29b]: the “Transrepression U937 Cells GITAR Emax (%)” value turned out to be 60.9% and the EC50 stood at 103 nM.

Take `C[C@]12Cc3cnn(-c4ccc(F)cc4)c3C=C1CC[C@@]2(CO)CC(O)c1cccnc1` (single isomer, unassigned) [Example 15b]: the “Transrepression U937 Cells GITAR Emax (%)” value came to 80.6% and the response was half-maximal at 98.5 nM (EC50).

In turn, `C[C@]12Cc3cnn(-c4ccc(F)cc4)c3C=C1CC[C@@]2(CO)CC(O)c1ccccc1` (single isomer, unassigned) [Example 13a] came in with a maximal effect (Emax) of 91% and an EC50 of 3.9 nM.

`C[C@]12Cc3cnn(-c4ccc(F)cc4)c3C=C1CC[C@@]2(CO)CC(O)c1ccccc1Cl` (single isomer, unassigned) [Example 3b]: the “Transrepression U937 Cells GITAR Emax (%)” value stood at 99.6% and it took 6 nM to reach a half-maximal effect (EC50).

Compound `C[C@]12Cc3cnn(-c4ccc(F)cc4)c3C=C1CC[C@@]2(CO)CC(O)c1cccc(Cl)c1` (stereo partly drawn) [Example 8, 1-(3-chlorophenyl)-2-[(4αS,5R)-1-(4-fluorophenyl)-5-(hydroxymethyl)-4α-methyl-1,4,4α,5,6,7-hexahydrocyclopenta[f]indazol-5-yl]ethanol] showed an Emax of 89.9% and a concentration for a half-maximal effect (EC50) of 21.4 nM.

Consider `C[C@]12Cc3cnn(-c4ccc(F)cc4)c3C=C1CC[C@@]2(CO)CC(O)c1cccc(C(F)(F)F)c1` (single isomer, unassigned) [Example 7b], for which the “Transrepression U937 Cells GITAR Emax (%)” value is given as 98.4% and the midpoint of the response, the EC50, lay at 44.7 nM.

With `COc1ccc(C(O)C[C@]2(CO)CCC3=Cc4c(cnn4-c4ccc(F)cc4)C[C@@]32C)nc1` (single isomer, unassigned) [Example 24a], the Emax is 63% and the midpoint of the response, the EC50, lay at 447 nM.

`C[C@]12Cc3cnn(-c4cccc(F)c4)c3C=C1CC[C@@]2(CO)CC(O)c1ccccn1` (single isomer, unassigned) [Example 19a] gave an Emax of 91.2% and an EC50 of 32.7 nM.

Regarding `Cc1ccc(C(O)C[C@]2(CO)CCC3=Cc4c(cnn4-c4ccc(F)cc4)C[C@@]32C)nc1` (stereo partly drawn) [Example 16, 2-[(4αS,5R)-1-(4-fluorophenyl)-5-(hydroxymethyl)-4α-methyl-1,4,4α,5,6,7-hexahydrocyclopenta[f]indazol-5-yl]-1-(5-methylpyridin-2-yl)ethanol], the maximum response (Emax) is 85.4% and a half-maximal effect (EC50) was put at 21.4 nM.

For `CC(O)(C[C@]1(CO)CCC2=Cc3c(cnn3-c3ccc(F)cc3)C[C@@]21C)c1cccnc1` (single isomer, unassigned) [Example 25b], the “Transrepression U937 Cells GITAR Emax (%)” value was 69.8% and the concentration giving a half-maximal response (EC50) worked out at 186 nM.

`C[C@]12Cc3cnn(-c4cccc(F)c4)c3C=C1CC[C@@]2(CO)CC(O)c1ccccn1` (single isomer, unassigned) [Example 19b]: the “Transrepression U937 Cells GITAR Emax (%)” value is 86.7% and the EC50 stood at 73.8 nM.

`COc1cccnc1C(O)C[C@]1(CO)CCC2=Cc3c(cnn3-c3cccc(F)c3)C[C@@]21C` (single isomer, unassigned) [Example 26b]: the “Transrepression U937 Cells GITAR Emax (%)” value is 51.8% and a half-maximal effect (EC50) was put at 1510 nM.
